# Experimental data published in patent US11667667B2, “Steroid derivative FXR agonist” (Chia Tai Tianqing Pharmaceutical Group Co., Ltd., priority 2016, dated 2023).
# Experiments:
# [1] = target: T1, Glutathione-S-transferase-labeled FXR human protein (Homo sapiens, UniProt Q96RI1); assay: FXR biochemical experiment (AlphaScreen, coactivator recruitment); settings: for Emax: ratio of highest signal of the compound to that of the reference compound, read-out: FXR enzyme activity Efficacy
# T1 construct: purchased Invitrogen
# T1 sequence (Q96RI1 1-486): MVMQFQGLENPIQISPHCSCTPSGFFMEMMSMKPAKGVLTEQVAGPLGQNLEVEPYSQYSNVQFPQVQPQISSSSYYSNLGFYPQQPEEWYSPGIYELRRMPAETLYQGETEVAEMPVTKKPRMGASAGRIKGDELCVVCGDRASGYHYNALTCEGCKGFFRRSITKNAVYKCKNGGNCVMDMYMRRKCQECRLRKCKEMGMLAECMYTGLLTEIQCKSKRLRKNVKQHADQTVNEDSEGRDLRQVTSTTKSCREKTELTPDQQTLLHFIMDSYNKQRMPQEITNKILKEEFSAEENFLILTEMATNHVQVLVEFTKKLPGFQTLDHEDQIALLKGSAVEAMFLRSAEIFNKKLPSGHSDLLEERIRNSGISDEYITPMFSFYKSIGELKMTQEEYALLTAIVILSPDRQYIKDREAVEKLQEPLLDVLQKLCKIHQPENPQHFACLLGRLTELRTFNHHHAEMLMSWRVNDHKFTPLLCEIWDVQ
# Description: FXR Biochemical Experiment Experimental Purpose: The activation effect of the compound on FXR binding reaction was detected by AlphaScreen. […] Protein: Glutathione-S-transferase-labeled FXR human protein (Invitrogen) 2. Co-activator: Biotin-labeled steroid receptor coactivator (Anaspec) 3. […] Compound Dilution: The compound to be tested was prepared as a 40 μM DMSO solution, and then diluted 3-fold to 10 concentration points. The reference compound was prepared as a 400 μM DMSO solution, and then diluted 1.5-fold to 10 concentration points. The diluted DMSO solution was added to the wells of a 384-well plate in a volume of 150 nL per well. 2. […] 4. […] The operation during the experimental process was protected from light. The incubation was performed for 1 hour at room temperature. 5. […] The operation during the experimental process was protected from light. The incubation was performed for 1 hour at room temperature. 6. EC50 test: Envision was used with excitation at 680 nm to read the […] signals at 520-620 nm. 7. Analytical data: The data were analyzed via using Prism 5.0, and the EC50 values of the activation effects of the compounds were calculated.
# [2] = target: T2, FXR (FXR HEK 293T DA cell line) (Homo sapiens, UniProt Q96RI1); assay: FXR cell experiment (β-lactamase reporter gene, GeneBLAzer); format: cell-based; settings: for Emax: HEK-293T, read-out: FXR cell activity Efficacy;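 as to FXR cell activity Efficacy: Emax relative to maximal signal of reference agonist chenodeoxycholic acid (CDCA)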
# T2 construct: expressed in transfected cells; host or cells: HEK 293T (FXR HEK 293T DA)
# T2 sequence (Q96RI1 with tags, fused parts or gaps limits assumed): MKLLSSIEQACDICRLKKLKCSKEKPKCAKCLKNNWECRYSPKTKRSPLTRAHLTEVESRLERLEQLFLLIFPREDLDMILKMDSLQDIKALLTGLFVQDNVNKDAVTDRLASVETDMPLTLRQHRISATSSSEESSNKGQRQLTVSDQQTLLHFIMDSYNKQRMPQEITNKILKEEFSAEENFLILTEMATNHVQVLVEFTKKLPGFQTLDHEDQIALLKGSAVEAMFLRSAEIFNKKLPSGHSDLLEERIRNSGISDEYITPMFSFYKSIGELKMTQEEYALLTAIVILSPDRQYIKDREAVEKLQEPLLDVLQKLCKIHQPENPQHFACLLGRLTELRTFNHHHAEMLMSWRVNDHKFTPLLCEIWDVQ
# Description: Compound Dilution: The compound to be tested was prepared as a 100 μM DMSO solution, and then the compound was diluted 3-fold to 10 concentration points. The reference compound was prepared as a 100 μM DMSO solution, and then diluted 1.3-fold to 10 concentration points. The diluted DMSO solution was added to the wells of a 384-well plate in a volume of 200 nL per well. 2. […] The 384-well microplate was incubated at 37° C., 5% CO2 for 16 hours. 4. 6 μL of 1 mM LiveBLAzer™-FRET B/G (CCF4-AM) substrate was mixed with 60 μL of B solution and 934 μL of C solution, and added to the wells of the 384-well plate in a volume of 8 μL per well. […] The 384-well microplate was incubated in dark for 2 hours at room temperature. 6. […] 7.
# [3] = Pharmacokinetics in mice administrated with single compound; format: in vivo, mice (C57BL/6J); settings: for drug exposure compared with control compound INT-747 / peak concentration compared with control compound INT-747: mice, oral administration at the same dosage
# Description: Pharmacokinetics in Mice Administrated with Single Compound:
# 12 male mice (C57BL/6J) were randomly divided into two groups, i.e., 6 mice per group. […] Plasma (using K2-EDTA as anticoagulant) samples were taken at 0.083, 0.25, 0.5, 1, 2, 4, 6, 8 and 24 hours in the intravenous administration group after administration; and plasma samples were taken at 0.25, 0.5, 1, 2, 4, 6, 8 and 24 hours in the oral administration group after administration. For 6 animals in each group, blood samples were collected for 3 animals at one time point. The first batch of 3 animals was alternately sampled with the second batch of 3 animals. Plasma sample analysis was performed by using LC-MS/MS. The resultant plasma concentrations were plotted with repect to time, and PK parameters were calculated by using Phoenix WinNonlin 6.3.
# [4] = Liver-blood ratio experiment of mice via cassette dosing; format: in vivo, mice (C57BL/6J); settings: for Concentration in liver / Concentration in plasma / Concentration ratio of liver to plasma: oral cassette 2 mg/kg
# Description: Liver-Blood Ratio Experiment of Mice Via Cassette Dosing
# 6 male mice (C57BL/6J) were grouped as an oral administration group. 5 kinds of the developed drugs were contained in the formulation, and intragastrical administration was performed at a dose of 2 mg/kg/compound (the vehicle was 0.5% HPMC aqueous solution). The five compounds were firstly and respectively dissolved in the vehicle, and sonicated or whirled to form a 1 mg/mL solution (clear solution or suspension), respectively; and then the solutions of the five compound were mixed in equal volumes (1:1:1:1:1, v:v:v:v:v) into a glass bottle. After intragastrical oral administration, plasma and liver tissue samples were collected from 3 animals at 0.5 h after administration; corresponding samples were collected from the other 3 animals at 3 h after administration. After collection, the liver tissue was homogenized by using ice-cold homogenization buffer (methanol:15 mM PBS buffer (pH 7.4)=1:2, v:v) based on the ratio of liver weight:homogenization buffer volume=1:3. Plasma and liver tissue samples were analyzed by using a five-in-one LC-MS/MS analysis method developed in advance. The concentrations of plasma and liver tissue homogenate were obtained, and the concentration ratios of liver tissue to plasma were calculated by using Excel.
# [5] = mouse, plasma, male C57BL/6J mice, oral 10 mg/kg
# [6] = oral, same dosage, at 0.5 h and 3 h
Compound,"EC50 ([1]; AlphaScreen, GST-FXR human protein + biotin-labeled steroid receptor coactivator, read-out: FXR enzyme activity EC50) [nM]",Emax [1] [%],"EC50 ([2]; FXR HEK 293T DA cells, β-lactamase reporter, 16 hours) [nM]",Emax [2] [%],drug exposure compared with control compound INT-747 [3],peak concentration compared with control compound INT-747 [3],"AUC [3, 5] [µM·h]","Cmax [3, 5] [nM]","Tmax [3, 5] [h]","bioavailability ([3]; mouse, plasma, male C57BL/6J mice, oral 10 mg/kg vs intravenous 2 mg/kg) [%]",Concentration in liver ([4]; 0.5 h) [nM],Concentration in plasma ([4]; 0.5 h) [nM],Concentration ratio of liver to plasma ([4]; 0.5 h),Concentration in liver ([4]; 3 h) [nM],Concentration in plasma ([4]; 3 h) [nM],Concentration ratio of liver to plasma ([4]; 3 h),"drug concentrations in the liver compared with control compound [4, 6]","liver/blood concentration ratios compared with control compound [4, 6]"
CC[C@H]1[C@@H](O)[C@@H]2[C@H](CC[C@]3(C)[C@@H]([C@H](C)CCOc4cncc(C(=O)O)c4)CC[C@@H]23)[C@@]2(C)CC[C@@H](O)C[C@@H]12 [Example 11],30,241,100,132,higher,higher,5.17,1430,2,–,–,–,–,–,–,–,–,–
CC[C@H]1[C@@H](O)[C@@H]2[C@H](CC[C@]3(C)[C@@H]([C@H](C)CCOc4ccc(C(=O)O)cn4)CC[C@@H]23)[C@@]2(C)CC[C@@H](O)C[C@@H]12 [Example 22],–,249,–,–,higher,close to,–,–,–,34,1959,83,24,701,45,16,higher,higher
CC[C@H]1[C@@H](O)[C@@H]2[C@H](CC[C@]3(C)[C@@H]([C@H](C)CCOc4ncc(C(=O)O)cc4Cl)CC[C@@H]23)[C@@]2(C)CC[C@@H](O)C[C@@H]12 [Example 23],–,248,–,150,higher,higher,–,–,–,–,–,–,–,–,–,–,–,–
